Source: patent US9266911B2, “Camptothecin derivative, and preparation method thereof, and pharmaceutical composition and application” (priority 2011, dated 2016)
In brackets after ≈: the same amount, converted by molar mass. Several values for one entry are separate records, joined by “and”; a condition that tells them apart may be missing. Equal entries are not always repeated. Where two headings read alike, the source gives them in different places.

What was measured:
[1] = Lactone ring stability (lactone ring conservation rate by HPLC in pH 7.4 buffer); type: physicochemical; settings: lactone ring conservation rate by HPLC after placing in buffer solution of pH 7.4
Procedure: (§1) Table 15 lists comparison of properties between the representative compounds of the present invention and several existing CPT derivatives. In the test, the lactone ring stability was characterized by lactone ring conservation rate measured by HPLC (liquid chromatogram) after placing the test compounds in buffer solution of pH 7.4. The anticancer activity was characterized by viability of H446 cancer cells at 10 μM drug concentration. From the Table, one can learn the differences in water-solubility, lactone ring stability and toxicology of the compounds of the present invention.

Water-solubility = type: physicochemical; settings: for solubility: water
Procedure: as §1

[2] = tested on: H446 (small cell lung cancer) cells; experiment: CellTiter-Glo cell viability assay, H446 cells; type: cell-based, human; settings: for viability at 10 µM / viability at 0.1 µM / viability at 1 µM: Homo sapiens, NCI-H446
Procedure: (§2) Using the CellTiter-Glo kit provided by Promega Corporation, cell viability assay was performed on cancer cell lines to evaluate the ability of a compound to kill cancer cells in the in-vitro experiments. The kit measures the ATP levels by an enzymatic Luciferase assay. Normal viable cells will produce a certain level of ATP in metabolism. The enzymic reaction between the ATP product and the luciferase will emit a certain level of luminescent signal, which is captured by a luminometer and recorded as a certain luminescent read. […] When using this method to evaluate the anti-cancer activity of a compound, a certain concentration of an anti-cancer drug is added to the same amount of viable cancer cells, and the luminescent signal reading is acquired at a certain time point via CellTiter-Glo kits. […] Detailed procedure is as follows: a certain amount of small cell lung cancer cells (ATCC catalog No. H446), breast cancer cells (ATCC catalog No. MDAMB231) or colon cancer cells (ATCC catalog No. HCT116) are seeded in 96 wells with the same cell-culture medium, then respectively treated with WQ1001 and other anti-cancer drugs for a time course of 24, 48, and 72 hours. At the respective time points, the cancer cells are mixed with CellTiter-Glo reagents for 1 hour and the corresponding luminescent signals are recorded. Since the luminescent signal reading is proportional to the amount of viable cancer cells, the luminescent signal reading can be translated into the amount of viable cancer cells correspondingly. The cell livability rate is obtained by dividing the amount of viable cancer cells after treated with a certain concentration of anti-cancer drug by the amount of viable cancer cells of the Control Group which are not treated with the drug.

[3] = tested on: human breast cancer MCF-7 nude mouse xenograft; experiment: In vivo antitumor efficacy, MCF-7 nude mouse xenograft model; settings: 35 mg/kg
[4] = tested on: human colon cancer HT-29 nude mouse xenograft; experiment: In vivo antitumor efficacy, HT-29 nude mouse xenograft model; settings: 35 mg/kg
[5] = tested on: HCT116 (colon cancer) cells; experiment: CellTiter-Glo cell viability assay, HCT116 cells; type: cell-based; settings: for viability at 0.1 µM / viability at 1 µM / viability at 10 µM: Homo sapiens, read-out: HCT116 cell viability after drug treatment for 48 hours
Procedure: as §2

[6] = tested on: MDAMB231 (breast cancer) cells; experiment: CellTiter-Glo cell viability assay, MDAMB231 cells; type: cell-based; settings: 48 hours; for viability at 0.1 µM / viability at 1 µM / viability at 10 µM: Homo sapiens, read-out: MDAMB231 cell viability after drug treatment; for viability at 0.1 µM: MDA-MB-231, 0.1 μM; for viability at 1 µM: MDA-MB-231, 1.0 μM; for viability at 10 µM: MDA-MB-231, 10 μM
Procedure: as §2

human serum album = human serum album (Homo sapiens, UniProt P02768); settings: physiological condition; cited from earlier work
Sequence of human serum album (P02768 25-609): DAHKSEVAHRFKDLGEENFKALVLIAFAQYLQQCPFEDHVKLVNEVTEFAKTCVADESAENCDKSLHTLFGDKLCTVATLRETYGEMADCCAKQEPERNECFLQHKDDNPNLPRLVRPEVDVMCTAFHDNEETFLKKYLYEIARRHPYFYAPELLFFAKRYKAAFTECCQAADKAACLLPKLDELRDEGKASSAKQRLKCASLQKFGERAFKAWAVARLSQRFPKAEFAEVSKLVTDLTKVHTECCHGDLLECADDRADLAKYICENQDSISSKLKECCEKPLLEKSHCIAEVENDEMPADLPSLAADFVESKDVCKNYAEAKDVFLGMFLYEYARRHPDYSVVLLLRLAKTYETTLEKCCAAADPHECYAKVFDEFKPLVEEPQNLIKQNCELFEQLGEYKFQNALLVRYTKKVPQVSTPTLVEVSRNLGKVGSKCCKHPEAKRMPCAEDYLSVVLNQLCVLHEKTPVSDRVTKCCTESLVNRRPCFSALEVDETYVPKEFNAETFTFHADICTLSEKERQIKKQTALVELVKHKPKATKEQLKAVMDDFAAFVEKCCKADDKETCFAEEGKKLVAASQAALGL

[7] = tested on: human multiple myeloma NCI-H929 nude mouse xenograft; experiment: In vivo antitumor efficacy, NCI-H929 nude mouse xenograft model; settings: 10 mg/kg (Table 23), intraperitoneal
Procedure: The human multiple myeloma NCI-H929 cells were grafted to nude mice. […] Two days after tumor cell implantation, the drugs were administered by intraperitoneal injection once every 4 days for a total of 3 injections (on Day 2, 6, 10 after cancer cell implantation). The body weight was measured every 2 days.

[8] = tested on: human small cell lung cancer NCI-H446 nude mouse xenograft; experiment: In vivo antitumor efficacy, NCI-H446 nude mouse xenograft model
Procedure: The drugs were administered by intravenous injection.
WQ1001 was administered by I.V. injection once every other day for 3 consecutive times, followed by 7 days' rest without drug administration, then one more circle was performed, for a total of 6 times of administration.

[9] = viability of H446 cancer cells at 10 μM drug concentration (Table 15), read-out: Cancer cell viability
[10] = H446 cells, 0.1 μM, 48 hours, read-out: H446 cell viability after drug treatment for 48 hours
[11] = H446 cells, 1.0 μM, 48 hours, read-out: H446 cell viability after drug treatment for 48 hours
[12] = H446 cells, 10 μM, 48 hours, read-out: H446 cell viability after drug treatment for 48 hours
[13] = viability of H446 cancer cells at 10 μM drug concentration (Table 15)
[14] = topotecan 10 mg/kg i.v., D0, 4, 7, 11, 14, 17, D22

CCc1c2c(nc3ccc(OC(=O)N4CCC(N5CCCCC5)CC4)cc13)-c1cc3c(c(=O)n1C2)COC(=O)[C@]3(O)CC [irinotecan, Irinotecan]
Lactone ring stability [1]: <50%
solubility (Water-solubility): 1000 µg/mL (≈ 1700 µM)
viability at 10 µM [2, 9]: > 30%
RTV22 ([3]; D0, 3, 7, 10, 14, 17): 1.9 ± 0.4
Animal body-weight (g_) End ([3]; D0, 3, 7, 10, 14, 17, end): 20.6 ± 1.4 g
Animal body-weight (g_) Start ([3]; D0, 3, 7, 10, 14, 17, start): 19.0 ± 0.8 g
RTV22 ([4]; D0, 3, 7, 10, 14, 17): 4.9 ± 1.3
Animal body-weight (g_) End ([4]; D0, 3, 7, 10, 14, 17, end): 18.7 ± 1.7 g

COc1cc([C@@H]2c3cc4c(cc3[C@@H](O[C@@H]3O[C@@H]5CO[C@@H](C)O[C@H]5[C@H](O)[C@H]3O)[C@H]3COC(=O)[C@H]23)OCO4)cc(OC)c1O [etoposide]
viability at 0.1 µM ([5]; HCT-116, 48 h, 0.1 μM): 102%
viability at 1 µM ([5]; HCT-116, 48 h, 1.0 μM): 89%
viability at 10 µM ([5]; HCT-116, 48 h, 10 μM): 29%
viability at 0.1 µM [2, 10]: 95%
viability at 1 µM [2, 11]: 73%
viability at 10 µM [2, 12]: 47%

CCc1c2c(nc3ccc(O)cc13)-c1cc3c(c(=O)n1C2)COC(=O)[C@]3(O)CC [SN38]
viability at 0.1 µM ([5]; HCT-116, 48 h, 0.1 μM): 5%
viability at 1 µM ([5]; HCT-116, 48 h, 1.0 μM): 2%
viability at 10 µM ([5]; HCT-116, 48 h, 10 μM): 6%
viability at 0.1 µM [2, 10]: 79%
viability at 1 µM [2, 11]: 60%
viability at 10 µM [2, 12]: 28%
viability at 0.1 µM [6]: 48%
viability at 1 µM [6]: 33%
viability at 10 µM [6]: 20%

CCC(O)(C(=O)O)c1cc2n(c(=O)c1CO)Cc1cc3ccccc3nc1-2 (stereo not drawn) [carboxylate derivative]
preferential binding to human serum album, relative to CPT (human serum album): 150 fold

CC[C@@]1(OP(=O)(O)O)C(=O)OCc2c1cc1n(c2=O)Cc2cc3ccccc3nc2-1 [CPT-20(S)-phosphate]
Lactone ring stability [1]: >90%
Water-solubility (Water-solubility): >10000 µg/mL
Cancer cell viability [2, 13]: >85%

CC[C@@]1(O)C(=O)OCc2c1cc1n(c2=O)Cc2cc3ccccc3nc2-1 [CPT, Camptothecin]
Lactone ring stability [1]: <50%
solubility (Water-solubility): < 100 µg/mL
HCT116 cell viability after drug treatment for 48 hours ([5]; 1.0 μM): 82%
viability at 0.1 µM ([5]; HCT-116, 48 h, 0.1 μM): 107%
viability at 1 µM ([5]; HCT-116, 48 h, 1.0 μM): 76%
viability at 0.1 µM [2, 10]: 65%
viability at 1 µM [2, 11]: 51%
viability at 10 µM [2, 12]: 24%
viability at 10 µM [2, 9]: < 30%
viability at 0.1 µM [6]: 13%
viability at 1 µM [6]: 5%
viability at 10 µM [6]: 3%

Topotecan
Lactone ring stability [1]: <50%
Water-solubility (Water-solubility): 1000 µg/mL
HCT116 cell viability after drug treatment for 48 hours ([5]; 0.1 μM): 26%
HCT116 cell viability after drug treatment for 48 hours ([5]; 1.0 μM): 2%
HCT116 cell viability after drug treatment for 48 hours ([5]; 10 μM): 6%
H446 cell viability after drug treatment for 48 hours ([2]; H446 cells, 0.1 μM, 48 hours): 73%
H446 cell viability after drug treatment for 48 hours ([2]; H446 cells, 1.0 μM, 48 hours): 50%
H446 cell viability after drug treatment for 48 hours ([2]; H446 cells, 10 μM, 48 hours): 25% and 23%
Cancer cell viability [2, 13]: >30%
MDAMB231 cell viability after drug treatment ([6]; 0.1 μM): 68%
MDAMB231 cell viability after drug treatment ([6]; 1.0 μM): 50%
MDAMB231 cell viability after drug treatment ([6]; 10 μM): 23%
RTV11 ([7]; D2, 6, 10): 25.3 ± 14.8
T11/C11 (%) ([7]; D2, 6, 10): 62.7%
Animal body-weight (g_) End ([7]; D2, 6, 10, end (Day 11)): 19.2 ± 0.9 g
Animal body-weight (g_) Start ([7]; D2, 6, 10, start): 21.0 ± 1.6 g
MTD (Maximum Toxicity Dosage) ([8]; NCI-H446 nude mice, i.v., 6 administrations): 10 mg/kg
animal death ([8]; WQ1001 40 mg/kg Group, topotecan 10 mg/kg Group, to D22): no animal death appeared
tumor growth ([8]; WQ1001 10, 20 and 40 mg/kg, topotecan 10 mg/kg, 6 administrations i.v.): significantly inhibited tumor growth
body weight change at the end of test ([8]; end of test (D22), WQ1001 40 mg/kg Group, topotecan 10 mg/kg Group): decreased significantly
RTV22 [8, 14]: 10.7 ± 4.8
T22/C22 (%) [8, 14]: 49.3%
Animal body-weight (g_) End ([8]; topotecan 10 mg/kg i.v., D0, 4, 7, 11, 14, 17, end (D22)): 16.4 ± 1.5 g
Animal body-weight (g_) Start ([8]; topotecan 10 mg/kg i.v., D0, 4, 7, 11, 14, 17, start): 17.6 ± 1.2 g

CC[C@@]1(O)C(=O)OCc2c1cc1n(c2=O)Cc2cc3cc(O)ccc3nc2-1 [10-hydroxyl CPT, 10-Hydroxy-CPT (SN22)]
viability at 0.1 µM ([5]; HCT-116, 0.1 μM, 48 hours): 15%
viability at 1 µM ([5]; HCT-116, 1.0 μM, 48 hours): 1%
viability at 10 µM ([5]; HCT-116, 10 μM, 48 hours): 9%
viability at 0.1 µM [2, 10]: 72%
viability at 1 µM [2, 11]: 30%
viability at 10 µM [2, 12]: 24%
viability at 0.1 µM [6]: 53%
viability at 1 µM [6]: 40%
viability at 10 µM [6]: 18%
